pEC50: −log10 of the molar value.

EC50 data for 29 molecules are collected here from BindingDB's records for doi:10.1016/j.bmc.2006.03.027 (Abbott Laboratories, 2006).

The assay deals with Transient receptor potential cation channel subfamily V member 1 (Homo sapiens, UniProt Q8NER1). Description: Ca2+ Influx Functional Assay for the Determination of in Vitro Activity. The settings on record: pH 7.4; 22 °C.
Chain of Transient receptor potential cation channel subfamily V member 1 (Q8NER1 whole entry): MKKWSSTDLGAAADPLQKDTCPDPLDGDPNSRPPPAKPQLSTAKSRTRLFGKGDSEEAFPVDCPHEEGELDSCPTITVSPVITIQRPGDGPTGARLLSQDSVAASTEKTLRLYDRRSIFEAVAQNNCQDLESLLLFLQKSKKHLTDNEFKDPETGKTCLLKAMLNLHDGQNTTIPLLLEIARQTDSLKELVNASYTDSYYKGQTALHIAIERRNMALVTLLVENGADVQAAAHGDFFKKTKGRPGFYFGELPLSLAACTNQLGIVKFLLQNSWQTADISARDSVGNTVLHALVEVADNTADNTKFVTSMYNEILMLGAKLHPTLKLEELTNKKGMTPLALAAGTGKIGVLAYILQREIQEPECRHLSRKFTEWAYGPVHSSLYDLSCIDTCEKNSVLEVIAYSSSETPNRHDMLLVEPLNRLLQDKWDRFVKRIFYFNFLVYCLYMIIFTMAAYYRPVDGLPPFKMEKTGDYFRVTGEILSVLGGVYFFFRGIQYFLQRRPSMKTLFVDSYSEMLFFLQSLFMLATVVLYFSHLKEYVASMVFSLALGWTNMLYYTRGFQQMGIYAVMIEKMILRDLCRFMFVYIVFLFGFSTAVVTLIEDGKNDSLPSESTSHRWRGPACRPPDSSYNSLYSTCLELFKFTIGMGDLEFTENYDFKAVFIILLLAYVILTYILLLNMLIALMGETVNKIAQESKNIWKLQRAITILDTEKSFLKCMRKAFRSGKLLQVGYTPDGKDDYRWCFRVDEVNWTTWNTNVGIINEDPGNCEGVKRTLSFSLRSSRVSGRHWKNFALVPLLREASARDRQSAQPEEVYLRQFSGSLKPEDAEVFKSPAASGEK
As to `Cn1ncc2c(NC(=O)NCc3ccc(F)cc3)cccc21` [1-[(4-fluorophenyl)methyl]-3-(1-methyl-1H-indazol-4-yl)urea], the negative-log EC50 (pEC50) was 6.14.
To `O=C(NCc1ccc(Br)cc1)Nc1ccc2[nH]ccc2c1` [1-[(4-bromophenyl)methyl]-3-1H-indol-5-ylurea] belongs 5.23; to `O=C(Nc1cccc2[nH]ccc12)OCc1ccc(C(F)(F)F)cc1` [[4-(trifluoromethyl)phenyl]methyl N-(1H-indol-4-yl)carbamate], 6.03.
The molecule `O=C(NCc1ccc(Br)cc1)Nc1cccc2cc[nH]c12` [1-[(4-bromophenyl)methyl]-3-1H-indol-7-ylurea] had a pEC50 of 6.74.
To `O=C(NCc1ccc(Br)cc1)Nc1ccc2[nH]ncc2c1` [1-[(4-bromophenyl)methyl]-3-1H-indazol-5-ylurea] belongs 5.45.
To `O=C(NCc1ccc(F)cc1)Nc1cccc2[nH]ccc12` [1-[(4-fluorophenyl)methyl]-3-1H-indol-4-ylurea] belongs 5.57.
To `O=C(NCc1ccc(OC(F)(F)F)cc1)Nc1cccc2[nH]ncc12` [3-1H-indazol-4-yl-1-{[4-(trifluoromethoxy)phenyl]methyl}urea] belongs 7.96.
Consider `O=C(NCc1ccc(Cl)c(Cl)c1)Nc1cccc2[nH]ncc12` [1-[(3,4-dichlorophenyl)methyl]-3-1H-indazol-4-ylurea], for which the negative logarithm of the EC50 (pEC50) was 7.68.
To `Cn1ncc2c(NC(=O)NCc3ccc(Cl)cc3)cccc21` [1-[(4-chlorophenyl)methyl]-3-(1-methyl-1H-indazol-4-yl)urea] belongs 7.22; to `O=C(Cc1cccc2[nH]ccc12)NCc1ccc(C(F)(F)F)cc1` [2-(1H-indol-4-yl)-N-{[4-(trifluoromethyl)phenyl]methyl}acetamide], 6.28; to `Cn1ncc2c(NC(=O)NCc3ccc(OC(F)(F)F)cc3)cccc21` [3-(1-methyl-1H-indazol-4-yl)-1-{[4-(trifluoromethoxy)phenyl]methyl}urea], 7.46.
To `O=C(NCc1ccc(Cl)cc1)Nc1cccc2[nH]ccc12` [1-[(4-chlorophenyl)methyl]-3-1H-indol-4-ylurea] belongs 6.82; to `Cn1ncc2c(NC(=O)NCc3ccc(Cl)c(Cl)c3)cccc21` [1-[(3,4-dichlorophenyl)methyl]-3-(1-methyl-1H-indazol-4-yl)urea], 6.92; to `O=C(NCc1ccc(C(F)(F)F)cc1)Nc1cccc2[nH]ccc12` [3-1H-indol-4-yl-1-{[4-(trifluoromethyl)phenyl]methyl}urea], 7.22.
For the molecule `O=C(NCc1ccc(Cl)c(Cl)c1)Nc1cccc2[nH]ccc12` [1-[(3,4-dichlorophenyl)methyl]-3-1H-indol-4-ylurea], the negative-log EC50 (pEC50) was 6.66.
To `O=C(NCc1ccc(Br)cc1)Nc1cccc2nc[nH]c12` [3-1H-1,3-benzodiazol-4-yl-1-[(4-bromophenyl)methyl]urea] belongs 5.61; to `O=C(NCc1ccc(C(F)(F)F)c(F)c1)Nc1cccc2[nH]ccc12` [1-{[3-fluoro-4-(trifluoromethyl)phenyl]methyl}-3-1H-indol-4-ylurea], 7.40; to `Cc1[nH]c2cccc(NC(=O)NCc3ccc(Br)cc3)c2c1C` [1-[(4-bromophenyl)methyl]-3-(2,3-dimethyl-1H-indol-4-yl)urea], 5.83.
The molecule `O=C(Cc1cccc2[nH]ncc12)NCc1ccc(C(F)(F)F)cc1` [2-(1H-indazol-4-yl)-N-{[4-(trifluoromethyl)phenyl]methyl}acetamide] gave a negative logarithm of the EC50 (pEC50) of 4.99.
To `O=C(NCc1ccc(Br)cc1)Nc1cccc2[nH]ncc12` [1-[(4-bromophenyl)methyl]-3-1H-indazol-4-ylurea] belongs 7.89; to `O=C(NCc1ccc(Br)cc1)Nc1ccc2cc[nH]c2c1` [1-[(4-bromophenyl)methyl]-3-1H-indol-6-ylurea], 5.52.
To `O=C(NCc1cccc(F)c1)Nc1cccc2[nH]ccc12` [1-[(3-fluorophenyl)methyl]-3-1H-indol-4-ylurea] belongs 5.57; to `Cn1ncc2c(NC(=O)NCc3ccc(Br)cc3)cccc21` [1-[(4-bromophenyl)methyl]-3-(1-methyl-1H-indazol-4-yl)urea], 7.12.
To `Cn1cc2c(NC(=O)NCc3ccc(Br)cc3)cccc2n1` [1-[(4-bromophenyl)methyl]-3-(2-methyl-2H-indazol-4-yl)urea] belongs 5.86.
`O=C(NCc1ccc(Cl)c(C(F)(F)F)c1)Nc1cccc2[nH]ccc12` [1-{[4-chloro-3-(trifluoromethyl)phenyl]methyl}-3-1H-indol-4-ylurea] had a negative logarithm of the EC50 (pEC50) of 7.15.
`O=C(NCc1ccc(C(F)(F)F)cc1)Nc1cccc2[nH]ncc12` [3-1H-indazol-4-yl-1-{[4-(trifluoromethyl)phenyl]methyl}urea]: the pEC50 was 8.05.
In the case of `O=C(NCc1ccc(OC(F)(F)F)cc1)Nc1cccc2[nH]ccc12` [3-1H-indol-4-yl-1-{[4-(trifluoromethoxy)phenyl]methyl}urea], the pEC50 was 7.10.
To `O=C(NCc1cccc(C(F)(F)F)c1)Nc1cccc2[nH]ncc12` [3-1H-indazol-4-yl-1-{[3-(trifluoromethyl)phenyl]methyl}urea] belongs 7.36; to `O=C(NCc1ccc(Br)cc1)Nc1cccc2[nH]ccc12` [1-[(4-bromophenyl)methyl]-3-1H-indol-4-ylurea], 6.96.

What is called pEC50 is −log10 of the EC50, conventionally taken in molar units. Read a high pEC50 as a small EC50.
